These results are taken from patent US12116358B2, “Substituted indoles and methods of use thereof” (EPIZYME, INC., priority 2018, dated 2024).

A value given as a limit tells only on which side of the number the result lay.

The assay concerns the target T1, SETD2(1434-1711) (Homo sapiens, UniProt Q9BYW2).
T1 construct: SETD2 (1434-1711) Assay; catalogue N/A
T1 sequence (Q9BYW2 1434-1711): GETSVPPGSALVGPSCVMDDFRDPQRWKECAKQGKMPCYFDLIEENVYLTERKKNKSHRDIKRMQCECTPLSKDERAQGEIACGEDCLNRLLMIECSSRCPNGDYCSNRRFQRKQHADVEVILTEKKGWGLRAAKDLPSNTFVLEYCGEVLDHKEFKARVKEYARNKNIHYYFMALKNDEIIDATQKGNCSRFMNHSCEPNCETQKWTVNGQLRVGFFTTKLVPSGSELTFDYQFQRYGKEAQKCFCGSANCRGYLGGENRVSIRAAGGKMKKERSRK
As to the kind of experiment: SETD2 (1434-1711) assay. The format is biochemical. Conditions: read-out: SETD2 (1434-1711).
As to `Cc1cccc2cc(C(=O)NC3CCNCC3)[nH]c12` [compound 715], the IC50 was 98.9 µM.
Consider `Cc1cccc2cc(C(=O)NCc3ccccc3N3CCCCC3)[nH]c12` [compound 716], for which the IC50 is above 100 µM.
`Cc1cccnc1C(NC(=O)c1cc2cccc(C(F)(F)F)c2[nH]1)C1CC1` (stereo not shown) [compound 717]: the IC50 is above 100 µM.
For `Cc1cccc2cc(C(=O)N3CCCc4ccccc4C3)[nH]c12` [compound 718], the IC50 is 103 µM.
With `Cc1cc(CNC(=O)c2cc3cccc(C)c3[nH]2)no1` [compound 719] the figure was 107 µM.
Take `Cc1cccc2cc(C(=O)NCC(O)c3c(F)cccc3F)[nH]c12` (stereo not shown) [compound 720]: the IC50 stood at 109 µM.
Regarding `Cc1nc(CNC(=O)c2cc3cccc(C)c3[nH]2)c(C)o1` [compound 721], the IC50 came to 113 µM.
For `Cc1cccnc1C(NC(=O)c1cc2cccc(C)c2[nH]1)C1CCNC1` (stereo not shown) [compound 722], the IC50 is 116 µM.
With `Cc1cnc(CNC(=O)c2cc3cccc(C)c3[nH]2)cn1` [compound 723], the IC50 was determined as 116 µM.
With `Cc1cccc2cc(C(=O)Nc3cc(CN4CCOCC4)ccn3)[nH]c12` [compound 724] the figure was 117 µM.
For the compound `Cc1cccc2cc(C(=O)NC(CCN(C)C)c3cccnc3)[nH]c12` (stereo not shown) [compound 725], the IC50 is 123 µM.
For `Cc1cccc2cc(C(=O)N[C@H](c3ccccc3)C(F)(F)F)[nH]c12` [compound 726], the IC50 was found to be 124 µM.
As for `Cc1cccc2cc(C(=O)NC(c3cncc(CN(C)C)c3)C3CC3)[nH]c12` (stereo not shown) [compound 727], the IC50 turned out to be 125 µM.
Take `Cc1cccnc1C(CCN(C)C)NC(=O)c1cc2cccc(C)c2[nH]1` (stereo not shown) [compound 728]: the IC50 was found to be 127 µM.
As for `Cc1cccc2cc(C(=O)NCc3cnc[nH]3)[nH]c12` [compound 729], the IC50 came to 129 µM.
For the compound `Cc1ccc(C)c2[nH]c(C(=O)N[C@H]3CC[C@H](N)CC3)cc12` [compound 730], the IC50 is above 130 µM.
Consider `Cc1cccc2cc(C(=O)NCC(O)C3CC3)[nH]c12` (stereo not shown) [compound 731], for which the IC50 was determined as 137 µM.
As to `Cc1nonc1CNC(=O)c1cc2cccc(C)c2[nH]1` [compound 732], the IC50 was found to be 137 µM.
Regarding `Cc1cccc2cc(C(=O)NCc3cocn3)[nH]c12` [compound 733], the IC50 was found to be 147 µM.
Turning to `Cc1noc(C(C)NC(=O)c2cc3cccc(C)c3[nH]2)n1` (stereo not shown) [compound 735], the IC50 turned out to be 165 µM.
As for `Cc1c(C(=O)N[C@H]2CC[C@H](N)CC2)[nH]c2c(C)cccc12` [compound 736], the IC50 amounted to 168 µM.
With `Cc1cc(C)c2[nH]c(C(=O)N[C@H]3CC[C@H](NC(=O)CCN)CC3)cc2c1` [compound 738] the figure was 179 µM; with `Cc1cccc2cc(C(=O)NCCN3CCOCC3)[nH]c12` [compound 746], above 200 µM; with `Cc1cccc2cc(C(=O)NCC3CCCO3)[nH]c12` (stereo not shown) [compound 747], above 200 µM.
As for `Cc1cccc2cc(C(=O)NC3CCc4ccccc43)[nH]c12` (stereo not shown) [compound 748], the IC50 is above 200 µM.
For the compound `Cc1cccc2cc(C(=O)NC(C)c3ccccc3)[nH]c12` (stereo not shown) [compound 749], the IC50 is above 200 µM.
Consider `Cc1cccc2cc(C(=O)NCc3cccc(N4CCCCC4)c3)[nH]c12` [compound 750], for which the IC50 is above 200 µM.
For `Cc1cccc2cc(C(=O)NCc3cccc(S(=O)(=O)N4CCCCC4)c3)[nH]c12` [compound 751], the IC50 is above 200 µM.
`Cc1cccc2cc(C(=O)NC3CCN(Cc4ccccc4)CC3)[nH]c12` [compound 752]: the IC50 was above 200 µM.
Turning to `Cc1cccc2cc(C(=O)NC3CCCc4ccccc43)[nH]c12` (stereo not shown) [compound 753], the IC50 is above 200 µM.
In the case of `COc1ccc(C(O)CNC(=O)c2cc3cccc(C)c3[nH]2)cc1` (stereo not shown) [compound 754], the IC50 is above 200 µM.
With `Cc1cccc2cc(C(=O)NCc3ccc(CN4CCOCC4)cc3)[nH]c12` [compound 755] the figure was above 200 µM; with `Cc1cc(C)c2[nH]c(C(=O)N[C@H]3CC[C@H](N)CC3)cc2c1` [compound 756], above 200 µM.
In the case of `Cc1cccc2cc(C(=O)N3CCN(c4ncccc4C(N)=O)CC3)[nH]c12` [compound 757], the IC50 is above 200 µM.
Regarding `Cc1cccc2cc(C(=O)NCc3ccc(S(=O)(=O)N4CCCCC4)cc3)[nH]c12` [compound 758], the IC50 was above 200 µM.
Consider `Cc1cccc2cc(C(=O)N[C@H]3C[C@@H](CO)C3)[nH]c12` [compound 759], for which the IC50 is above 200 µM.
With `Cc1cccc2cc(C(=O)N(C)[C@H]3CC[C@H](N)CC3)[nH]c12` [compound 761] the figure was above 200 µM; with `Cc1cccc2cc(C(=O)N[C@H](CO)C(C)C)[nH]c12` [compound 763], above 200 µM.
On to `COC(=O)CC(NC(=O)c1cc2cccc(C)c2[nH]1)c1ccc(Cl)cc1` (stereo not shown) [compound 764], for which the IC50 is above 200 µM.
Turning to `Cc1cccc2cc(C(=O)N[C@H](CO)Cc3ccccc3)[nH]c12` [compound 765], the IC50 was above 200 µM.
For `Cc1cccc2cc(C(=O)NC(C)CNC(=O)OC(C)(C)C)[nH]c12` (stereo not shown) [compound 766], the IC50 was above 200 µM.
As to `Cc1cccc2cc(C(=O)NCc3ccccc3OCC3CC3)[nH]c12` [compound 767], the IC50 is above 200 µM.
With `Cc1cccc2cc(C(=O)NCc3ncnn3C)[nH]c12` [compound 768] the figure was above 200 µM; with `Cc1cccc2cc(C(=O)NC(C3CC3)C(F)(F)F)[nH]c12` (stereo not shown) [compound 769], above 200 µM; with `Cc1cccc2cc(C(=O)N3CCC(C(N)=O)CC3)[nH]c12` [compound 771], above 200 µM.
With `COC(=O)CC(NC(=O)c1cc2cccc(C)c2[nH]1)c1ccc(C(C)C)cc1` (stereo not shown) [compound 773], the IC50 was above 200 µM.
In the case of `COC(=O)CC(NC(=O)c1cc2cccc(C)c2[nH]1)c1ccccc1Br` (stereo not shown) [compound 774], the IC50 is above 200 µM.
With `COC(=O)CC(NC(=O)c1cc2cccc(C)c2[nH]1)c1ccccc1` (stereo not shown) [compound 775] the figure was above 200 µM; with `COC(=O)CC(NC(=O)c1cc2cccc(C)c2[nH]1)c1ccc(F)cc1` (stereo not shown) [compound 776], above 200 µM.
As for `COC(=O)CC(NC(=O)c1cc2cccc(C)c2[nH]1)c1ccc(OC)cc1` (stereo not shown) [compound 777], the IC50 was above 200 µM.
Consider `COC(=O)CC(NC(=O)c1cc2cccc(C)c2[nH]1)c1ccc(Br)cc1` (stereo not shown) [compound 778], for which the IC50 was above 200 µM.
In the case of `Cc1cccc2cc(C(=O)NCc3nc4ccccc4o3)[nH]c12` [compound 779], the IC50 was above 200 µM.
As for `Cc1cccc2cc(C(=O)N[C@H]3CC[C@H](C(F)(F)F)CC3)[nH]c12` [compound 780], the IC50 was above 200 µM.
Regarding `Cc1cccc2cc(C(=O)N3CCN(CC(N)=O)CC3)[nH]c12` [compound 781], the IC50 was above 200 µM.
For the compound `Cc1nc(CCNC(=O)c2cc3cccc(C)c3[nH]2)no1` [compound 782], the IC50 was above 200 µM.
With `COC(=O)CC(NC(=O)c1cc2cccc(C)c2[nH]1)c1ccc(C)cc1` (stereo not shown) [compound 783] the figure was above 200 µM.
For the compound `Cc1cccc2cc(C(=O)NCC(O)C(F)F)[nH]c12` (stereo not shown) [compound 784], the IC50 is above 200 µM.
With `Cc1nc(C(C)NC(=O)c2cc3cccc(C)c3[nH]2)no1` (stereo not shown) [compound 785] the figure was above 200 µM.
As for `Cc1cccc2cc(C(=O)N3CCCC3C(N)=O)[nH]c12` (stereo not shown) [compound 786], the IC50 was above 200 µM.
As for `Cc1cccc2cc(C(=O)N3CCN(C(N)=O)CC3)[nH]c12` [compound 787], the IC50 was above 200 µM.
For `Cc1cccc2cc(C(=O)NC(C)c3ccccc3C(F)(F)F)[nH]c12` (stereo not shown) [compound 788], the IC50 is above 200 µM.
With `Cc1cccc2cc(C(=O)NC(C)c3cccc(C(F)(F)F)c3)[nH]c12` (stereo not shown) [compound 790], the IC50 was above 200 µM.
Consider `Cc1cccc2cc(C(=O)N[C@H]3CC[C@H](NC(=O)C(F)(F)F)CC3)[nH]c12` [compound 791], for which the IC50 is above 200 µM.
As to `Cc1cccc2cc(C(=O)N3CCCC(N)C3)[nH]c12` (stereo not shown) [compound 794], the IC50 was above 200 µM.
With `Cc1cccc2cc(C(=O)Nc3cccnc3)[nH]c12` [compound 795] the figure was above 200 µM.
On to `Cc1cccc2cc(C(=O)Nc3cn4ccccc4n3)[nH]c12` [compound 796], for which the IC50 was above 200 µM.
As to `CCOC(=O)[C@@H]1CCCC[C@H]1NC(=O)c1cc2cccc(C)c2[nH]1` [compound 797], the IC50 was above 200 µM.
For `Cc1cccc2cc(C(=O)N3CCCC(NC(=O)CCN)C3)[nH]c12` (stereo not shown) [compound 798], the IC50 is above 200 µM.
Turning to `Cc1cccc2cc(C(=O)N3CCCC(N(C)C)C3)[nH]c12` (stereo not shown) [compound 799], the IC50 was above 200 µM.
Consider `CNC1CCCN(C(=O)c2cc3cccc(C)c3[nH]2)C1` (stereo not shown) [compound 800], for which the IC50 was above 200 µM.
Regarding `Cc1ccccc1C(NC(=O)c1cc2cccc(C)c2[nH]1)C1CC1` (stereo not shown) [compound 801], the IC50 was above 200 µM.
With `Cc1cccnc1C(NC(=O)c1cc2cccc(C(C)C)c2[nH]1)C1CC1` (stereo not shown) [compound 802] the figure was above 200 µM.
With `CCc1cccc2cc(C(=O)NC(c3ccccn3)C3CC3)[nH]c12` (stereo not shown) [compound 803], the IC50 was above 200 µM.
Take `Cc1cccc2cc(C(=O)Nc3ncc4ccccc4n3)[nH]c12` [compound 804]: the IC50 is above 200 µM.
With `CNC(=O)CC(NC(=O)c1cc2cccc(C)c2[nH]1)c1cccnc1` (stereo not shown) [compound 809] the figure was above 200 µM; with `Cc1cccc2cc(C(=O)N3CCn4cncc4C3)[nH]c12` [compound 810], above 200 µM; with `Cc1cccc2cc(C(=O)N3CCn4cnnc4C3)[nH]c12` [compound 811], above 200 µM.
Regarding `Cc1cccc2cc(C(=O)N3CCn4ncnc4C3)[nH]c12` [compound 812], the IC50 is above 200 µM.
With `Cc1cccc2cc(C(=O)N3CCC(=O)c4ccccc4C3)[nH]c12` [compound 814] the figure was above 200 µM.
